Test results as given in article PMC8566969, “Comparison of viral RNA–host protein interactomes across pathogenic RNA viruses informs rapid antiviral drug discovery for SARS-CoV-2” (Cell Research, 2021).
Read-outs that look alike come from different tables or passages of the source.

Assays:
[1] = tested on: SARS-CoV-2 B.1.351 variant
[2] = tested on: SARS-CoV-2 B.1.351 variant; assay: microbe, parasite or virus in culture; conditions: Severe acute respiratory syndrome coronavirus 2, A549-ACE2, 48 h, read-out: IC50, SARS-CoV-2 B.1.351
[3] = tested on: SARS-CoV-2 B.1.351 variant; assay: microbe, parasite or virus in culture; assay type: cell-based; conditions: Severe acute respiratory syndrome coronavirus 2, Huh-7.5.1, 48 h, read-out: IC50, SARS-CoV-2 B.1.351 in Huh7.5.1 cells

Row | SMILES | Inhibitory effect in B.1.351-infected cells (in words) [1] | SI (CC50/IC50), SARS-CoV-2 B.1.351 [1] | IC50 [2] [µM] | IC50 [3] [µM]
1 | COc1cc2c(cc1OC)[C@@H]1C(=O)c3ccc4c(c3O[C@@H]1CO2)C=CC(C)(C)O4 [Deguelin] | exerted inhibitory effects | 7.44 | 4.67 | 
2 | CNC(=O)c1cc(Oc2ccc(NC(=O)Nc3ccc(Cl)c(C(F)(F)F)c3)cc2)ccn1 [Sorafenib] | exerted inhibitory effects | 7.6 | 1.7 | 
3 | CN1CCN(CCCN2c3ccccc3Sc3ccc(C(F)(F)F)cc32)CC1 [Trifluoperazine] | exerted inhibitory effects | 13.25 | 2.79 | 
4 | COc1ccc2cc1Oc1ccc(cc1)C[C@H]1c3c(cc4c(c3Oc3cc5c(cc3OC)CCN(C)[C@@H]5C2)OCO4)CCN1C [Cepharanthine] | exerted inhibitory effects | 128.83 | 0.24 | 0.06
